Test results reported in the NIST ThermoML archive (doi:10.1021/je400178k).

Assay: molar heat capacity at constant pressure; xn = mol fraction of the nth substance listed
Conditions: 101 kPa, Liquid, Small sample (50 mg) DSC

CN1CCNCC1 [N-methylpiperazine] + O
molar heat capacity at constant pressure [J/K/mol]
Conditions	x1 = 0.099	x1 = 0.1998	x1 = 0.2995	x1 = 0.4009	x1 = 0.4983	x1 = 0.6007	x1 = 0.6994	x1 = 0.7992	x1 = 0.8992	x1 = 1
298.15 K	99.4	116	128.8	141.4	153.8	166.6	179	191.4	203.6	213.9
303.15 K	100.6	117.3	130.4	143.3	155.6	168.2	180.5	192.7	204.7	214.4
308.15 K	101.6	118.6	131.9	144.8	157.1	169.7	182	194.3	205.8	215
313.15 K	102.7	119.9	133.4	146.4	158.6	171.3	183.4	195.4	206.8	215.7
318.15 K	103.7	120.8	134.6	147.7	159.8	172.7	184.7	196.7	207.8	216.4
323.15 K	104.6	122.1	136.2	149.3	161.4	174	185.7	197.5	208.5	216.9
328.15 K	105.6	123.5	137.8	151.1	163	175.3	186.9	198.5	209.2	217.3
333.15 K	106.1	124.8	139.4	153.3	165.5	177.3	188.2	198.9	209.3	217.2
338.15 K	106.6	126.1	140.9	154.4	166.8	178.4	189	198.5	208.2	215.5
343.15 K	107.3	127.3	142.4	156	168.2	179.8	190.6	200.1	209.2	216.2
348.15 K	108.2	128.5	143.8	157.6	170	181.6	192.4	202.3	211.4	217.6
353.15 K	109	129.7	145.2	159.2	171.5	183	193.8	203.7	212.7	218
